Usually pEC50 stands for the EC50 on a negative log10 scale, so that one unit is a factor of ten. Read a high pEC50 as a small EC50.

Results on three compounds are retold here after patent US8946195B2, “Bicyclic methyl amine derivatives as sphingosine-1 phosphate receptors modulators” (Allergan, Inc., priority 2011, dated 2015).

The target in this assay is T1, human S1P1 receptor (Homo sapiens, UniProt P21453).
T1 construct: expressed in transfected cells; membranes used
Put plainly: GTP γ35S binding assay for S1P1 activity. It counts as biochemical. The settings on record: membranes of cells stably expressing the S1P1 receptor, agonist potency. Here is the method:
Compounds were synthesized and tested for S1P1 activity using the GTP γ^35S binding assay. These compounds may be assessed for their ability to activate or block activation of the human S1P1 receptor in cells stably expressing the S1P1 receptor.
GTP γ35S binding was measured in the medium containing (mM) HEPES 25, pH 7.4, MgCl2 10, NaCl 100, dithitothreitol dithitothreitol 0.5, digitonin 0.003%, 0.2 nM GTP γ35S, and 5 μg membrane protein in a volume of 150 μl. Test compounds were included in the concentration range from 0.08 to 5,000 nM unless indicated otherwise. Membranes were incubated with 100 μM 5′-adenylylimidodiphosphate adenylylimmidodiphosphate for 30 min, and subsequently with 10 μM GDP for 10 min on ice. Drug solutions and membrane were mixed, and then reactions were initiated by adding GTP γ35S and continued for 30 min at 25° C. Reaction mixtures were filtered over Whatman GF/B filters under vacuum, and washed three times with 3 mL of ice-cold buffer (HEPES 25, pH7.4, MgCl2 10 and NaCl 100). Filters were dried and mixed with scintillant, and counted for 35S activity using a β-counter. Agonist-induced GTP γ35S binding was obtained by subtracting that in the absence of agonist. Binding data were analyzed using a non-linear regression method. In case of antagonist assay, the reaction mixture contained 10 nM […] in the presence of test antagonist at concentrations ranging from 0.08 to 5000 nM.
A general note: GTPγS is a poorly hydrolysed GTP analogue; its binding reports G protein activation.

pEC50: −log10 of the molar value.

T1 sequence (P21453 whole entry): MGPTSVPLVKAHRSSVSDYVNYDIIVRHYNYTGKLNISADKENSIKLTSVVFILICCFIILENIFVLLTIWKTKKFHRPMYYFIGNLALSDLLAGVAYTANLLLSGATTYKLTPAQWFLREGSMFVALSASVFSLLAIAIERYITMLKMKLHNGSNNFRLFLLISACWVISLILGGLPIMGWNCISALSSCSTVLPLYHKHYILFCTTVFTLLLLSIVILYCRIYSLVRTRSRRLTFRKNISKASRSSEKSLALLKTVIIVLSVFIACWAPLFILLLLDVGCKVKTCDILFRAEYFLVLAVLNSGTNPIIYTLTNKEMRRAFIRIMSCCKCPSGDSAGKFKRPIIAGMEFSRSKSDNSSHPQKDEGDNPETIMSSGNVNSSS

Turning to `CCCCCCc1ccc(-c2ccc(CNCCCP(=O)(O)O)c3c2CCC3)cc1` [Compound 1, [3-({[7-(4-hexylphenyl)-2,3-dihydro-1H-inden-4-yl]methyl}amino)propyl]phosphonic acid], the negative logarithm of the EC50 (pEC50) is 7.43.
`CCCCCCc1ccc(-c2ccc(CNCCCP(=O)(O)O)c3occc23)cc1` [Compound 2, [3-({[4-(4-hexylphenyl)-1-benzofuran-7-yl]methyl}amino)propyl]phosphonic acid] showed a pEC50 of 6.77.
Compound `CCCCCCc1ccc(-c2ccc(CNCCCP(=O)(O)O)c3ccoc23)cc1` [Compound 3, [3-({[7-(4-hexylphenyl)-1-benzofuran-4-yl]methyl}amino)propyl]phosphonic acid] had a negative-log EC50 (pEC50) of 7.35.
